Measured values: PubChem BioAssay AID248 (DTP/NCI, 2004)
“And” between values parts separate entries of the source, which are not always exact repeats. Equal entries are not always repeated. Inconclusive results and toxic doses are left out. Rule as the data show it: active = T/C of 150% or more; inactive = T/C below 125%.

System: L1210 leukemia ip in BDF1 mice, survival T/C
Assay: NCI In Vivo Anticancer Drug Screen. Data for tumor model L1210 Leukemia (intraperitoneal) in B6D2F1 (BDF1) mice
Details: endpoint: mean survival time, higher = longer survival
Procedure, shortened: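 In this screen, tumor-bearing mice given compound are compared to those given vehicle, and their survival values are reported as a treated-to-control quotient.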

[1] = dose: 100.0 mg/kg/injection, schedule: Q01DX001 (ip), vehicle: saline with Tween-80
[2] = dose: 100.0 mg/kg/injection, schedule: Q04DX002 (ip), vehicle: Klucel (hydroxypropylcellulose) (HPC)
[3] = dose: 100.0 mg/kg/injection, schedule: Q01DX009 (ip), vehicle: saline with Tween-80
[4] = dose: 200.0 mg/kg/injection, schedule: Q01DX001 (ip), vehicle: saline with Tween-80
[5] = dose: 200.0 mg/kg/injection, schedule: Q01DX009 (ip), vehicle: saline with Tween-80
[6] = dose: 400.0 mg/kg/injection, schedule: Q01DX001 (ip), vehicle: saline with Tween-80
[7] = dose: 100.0 mg/kg/injection, schedule: Q01DX001 (ip), vehicle: carboxymethylcellulose (CMC)
[8] = dose: 200.0 mg/kg/injection, schedule: Q01DX001 (ip), vehicle: carboxymethylcellulose (CMC)
[9] = dose: 400.0 mg/kg/injection, schedule: Q01DX001 (ip), vehicle: carboxymethylcellulose (CMC)
[10] = dose: 100.0 mg/kg/injection, schedule: Q01DX001 (ip), vehicle: saline
[11] = dose: 100.0 mg/kg/injection, schedule: Q04DX003 (ip), vehicle: saline
[12] = dose: 200.0 mg/kg/injection, schedule: Q01DX001 (ip), vehicle: saline
[13] = dose: 200.0 mg/kg/injection, schedule: Q04DX003 (ip), vehicle: saline
[14] = dose: 400.0 mg/kg/injection, schedule: Q01DX001 (ip), vehicle: saline
[15] = dose: 400.0 mg/kg/injection, schedule: Q04DX003 (ip), vehicle: saline

Measured: T/C

CN(CCS(=O)(=O)O)/N=C/c1ccc2c(c1)OCO2
inactive: dose: 25.0 mg/kg/injection, schedule: Q01DX009 (ip), vehicle: alcohol 112 % of control | dose: 50.0 mg/kg/injection, schedule: Q01DX009 (ip), vehicle: alcohol 102 % of control | [1] 92 % of control | dose: 100.0 mg/kg/injection, schedule: Q01DX009 (ip), vehicle: alcohol 101 % of control | dose: 150.0 mg/kg/injection, schedule: Q01DX009 (ip), vehicle: Klucel (hydroxypropylcellulose) (HPC) 94 % of control | dose: 225.0 mg/kg/injection, schedule: Q01DX009 (ip), vehicle: Klucel (hydroxypropylcellulose) (HPC) 97 % of control

CCCP(C)(=S)CCC
inactive: dose: 25.0 mg/kg/injection, schedule: Q04DX002 (ip), vehicle: Klucel (hydroxypropylcellulose) (HPC) 112 % of control | dose: 50.0 mg/kg/injection, schedule: Q04DX002 (ip), vehicle: Klucel (hydroxypropylcellulose) (HPC) 108 % of control | [2] 112 % of control

CN(N=Nc1ccccc1C(=O)NN)C1CCCCC1
inactive: dose: 100.0 mg/kg/injection, schedule: Q01DX009 (ip), vehicle: other 117 % of control | dose: 200.0 mg/kg/injection, schedule: Q01DX009 (ip), vehicle: other 114 % of control

CC(C)/C=N/NC(=O)CCCCCCCCC(=O)N/N=C/C(C)C
inactive: [1] 97 % of control | [3] 105 % of control and 106 % of control | dose: 100.0 mg/kg/injection, schedule: Q04DX002 (ip), vehicle: saline with Tween-80 97 % of control | dose: 100.0 mg/kg/injection, schedule: Q04DX003 (ip), vehicle: saline with Tween-80 111 % of control | [4] 92 % of control | [5] 100 % of control and 108 % of control | dose: 200.0 mg/kg/injection, schedule: Q04DX002 (ip), vehicle: saline with Tween-80 97 % of control | dose: 200.0 mg/kg/injection, schedule: Q04DX003 (ip), vehicle: saline with Tween-80 110 % of control | [6] 97 % of control | dose: 400.0 mg/kg/injection, schedule: Q01DX009 (ip), vehicle: saline with Tween-80 93 % of control and 108 % of control | dose: 400.0 mg/kg/injection, schedule: Q04DX002 (ip), vehicle: saline with Tween-80 94 % of control and 95 % of control | dose: 400.0 mg/kg/injection, schedule: Q04DX003 (ip), vehicle: saline with Tween-80 101 % of control

C/C(C(=O)O)=C1\N=C(N)NC1=O
inactive: dose: 100.0 mg/kg/injection, schedule: Q01DX001 (ip), vehicle: Klucel (hydroxypropylcellulose) (HPC) 98 % of control | dose: 200.0 mg/kg/injection, schedule: Q01DX001 (ip), vehicle: Klucel (hydroxypropylcellulose) (HPC) 96 % of control | dose: 400.0 mg/kg/injection, schedule: Q01DX001 (ip), vehicle: Klucel (hydroxypropylcellulose) (HPC) 102 % of control

O=C1CSSCC(=O)NCCN1
inactive: [2] 93 % of control and 96 % of control | dose: 200.0 mg/kg/injection, schedule: Q04DX002 (ip), vehicle: Klucel (hydroxypropylcellulose) (HPC) 93 % of control and 96 % of control | dose: 400.0 mg/kg/injection, schedule: Q04DX002 (ip), vehicle: Klucel (hydroxypropylcellulose) (HPC) 93 % of control and 96 % of control

CN(C)S(=O)(=O)c1ccccc1C(O)(c1ccccc1)c1ccccc1
inactive: [7] 95 % of control | [8] 93 % of control | [9] 98 % of control

CC(=O)OC1=CC2(OC(C)=O)CC1C1C(=O)OC(=O)C12 (configuration not stated)
inactive: [10] 101 % of control | [11] 96 % of control | [12] 98 % of control | [13] 96 % of control | [14] 88 % of control | [15] 86 % of control

CC(NC(=O)/C=C\C(=O)O)c1ccccc1 (configuration not stated)
inactive: [11] 92 % of control | [13] 102 % of control | [15] 103 % of control

CCCSc1ccccc1N1CCNCC1
inactive: dose: 50.0 mg/kg/injection, schedule: Q01DX001 (ip), vehicle: saline 103 % of control | [10] 101 % of control | [12] 101 % of control | [14] 103 % of control

CC(C)(C)C(=O)CC(=O)C(C)(C)C.CC(C)(C)C(=O)CC(=O)C(C)(C)C.CC(C)(C)C(=O)CC(=O)C(C)(C)C.[Pr]
inactive: [1] 100 % of control | [3] 98 % of control | [4] 97 % of control | [5] 88 % of control | [6] 89 % of control

CC(C)(C)c1ccc(S(=O)(=O)c2ccc(C(C)(C)C)c(N=C=O)c2)cc1N=C=O
inactive: dose: 75.0 mg/kg/injection, schedule: Q04DX002 (ip), vehicle: saline with Tween-80 96 % of control | dose: 150.0 mg/kg/injection, schedule: Q04DX002 (ip), vehicle: saline with Tween-80 101 % of control | dose: 300.0 mg/kg/injection, schedule: Q04DX002 (ip), vehicle: saline with Tween-80 93 % of control

CC12CCC(=O)C=C1CCC1C2C(O)CC2(C)C1CCC2(O)C(=O)CSc1ncnc2nc[nH]c12 (configuration not stated)
inactive: dose: 50.0 mg/kg/injection, schedule: Q01DX001 (sc), vehicle: steriod suspending solution 96 % of control | dose: 100.0 mg/kg/injection, schedule: Q01DX001 (sc), vehicle: steriod suspending solution 94 % of control and 108 % of control | dose: 200.0 mg/kg/injection, schedule: Q01DX001 (sc), vehicle: steriod suspending solution 105 % of control and 108 % of control | dose: 400.0 mg/kg/injection, schedule: Q01DX001 (sc), vehicle: steriod suspending solution 97 % of control and 102 % of control

CCCCC(=O)C(CCC)C(=O)Nc1ccccc1 (configuration not stated)
inactive: dose: 50.0 mg/kg/injection, schedule: Q04DX003 (ip), vehicle: Klucel (hydroxypropylcellulose) (HPC) 98 % of control | [7] 100 % of control | dose: 100.0 mg/kg/injection, schedule: Q04DX003 (ip), vehicle: Klucel (hydroxypropylcellulose) (HPC) 94 % of control and 98 % of control | [8] 91 % of control | dose: 200.0 mg/kg/injection, schedule: Q04DX003 (ip), vehicle: Klucel (hydroxypropylcellulose) (HPC) 96 % of control and 98 % of control | [9] 91 % of control | dose: 400.0 mg/kg/injection, schedule: Q04DX003 (ip), vehicle: Klucel (hydroxypropylcellulose) (HPC) 98 % of control

COC(=O)C(O)(C#CC(C)(C)C)c1ccccc1 (configuration not stated)
inactive: dose: 100.0 mg/kg/injection, schedule: Q01DX001 (ip), vehicle: other 86 % of control | dose: 200.0 mg/kg/injection, schedule: Q01DX001 (ip), vehicle: other 91 % of control | dose: 400.0 mg/kg/injection, schedule: Q01DX001 (ip), vehicle: other 96 % of control

CC(=O)Nc1ccc(NC(=O)c2cccc(F)c2)cc1
inactive: dose: 100.0 mg/kg/injection, schedule: Q01DX009 (ip), vehicle: Klucel (hydroxypropylcellulose) (HPC) 86 % of control | dose: 200.0 mg/kg/injection, schedule: Q01DX009 (ip), vehicle: Klucel (hydroxypropylcellulose) (HPC) 102 % of control | dose: 400.0 mg/kg/injection, schedule: Q01DX009 (ip), vehicle: Klucel (hydroxypropylcellulose) (HPC) 91 % of control

O=c1oc2ccccc2c(O)c1Oc1ccccc1
inactive: [11] 98 % of control | [13] 91 % of control | [15] 87 % of control

O=S(=O)(/C(Br)=C\c1ccccc1)c1ccccc1
inactive: [10] 103 % of control | dose: 100.0 mg/kg/injection, schedule: Q01DX009 (ip), vehicle: saline 104 % of control | [11] 98 % of control | [12] 102 % of control | dose: 200.0 mg/kg/injection, schedule: Q01DX009 (ip), vehicle: saline 110 % of control | [13] 101 % of control | [14] 102 % of control | dose: 400.0 mg/kg/injection, schedule: Q01DX009 (ip), vehicle: saline 98 % of control | [15] 98 % of control
